Measured values from patent US20210253520A1, “POLYMYXIN-BASED COMPOUNDS USEFUL AS ANTIBACTERIAL AGENTS” (UNIVERSITAT DE BARCELONA, priority 2018, published 2021).
In brackets after ≈: the same amount, converted by molar mass. Where two headings read alike, the source gives them in different places. Numbered stars: 1 amine (or outer) side, 2 acyl side, 3 side chain; on linkers, the order of the positions; unused ones are H or OH. Bridge positions count the residues as written; N and C are the ends. Square brackets hold non-standard residues; d marks the D form. Peptide text beside a SMILES is read from it. X1 = C[C@@H](O)[C@@H](CS[*:1])N[*:2]; dGly(nOct) = CCCCCCCC[C@@H](N)C(=O)O; Hica(2S) = CC(C)C[C@H](O)C(=O)O; Dab = NCC[C@H](N)C(=O)O

Assays:
[1] = system: K. pneumoniae MB674; format: cell-based; settings: for MIC: resistance profile of strain K. pneumoniae MB674, Table 3
Method: (§1) The antibacterial activity of the polymyxin lipopeptides was measured at ISGlobal following the microdilution test to determine the Minimal Inhibitory Concentrations (MIC) in sterile 96-well polypropilene plates. The concentration range was 32 a […] in Iso-Sensitest broth (Oxoid, ThermoFisher). The results were carried out in triplicate and the highest MIC is the one shown. Bacterial strains were grown in blood agar plates at 37° C. for 17 h. Fresh colonies were used to prepare a McFarland 0.5 solution that was finally added to the plates at 1 to 100 dilution
(§2) Samples of sensitive and multi-drug resistant bacteria were: E. coli ATCC 25922 E. coli MB1410; K. pneumoniae MB674; P. aeruginosa ATCC 27853; P. aeruginosa 36A.

[2] = system: Swiss CD-1 female mice; assay: Nephrotoxicity study, histopathological scoring of kidney lesions; format: in vivo; set-up: key to Group Score (GS): mean of per-animal summed 0-4 lesion scores; higher = more nephrotoxic; key to Animal Score (AS), Partial AS: sum of 0-4 lesion parameter scores; higher = more nephrotoxic
Method: Swiss CD-1 female mice weighing approximately 20-24 g (JANVIER Labs) were used, housed in an individually ventilated cage system under specific pathogen-free conditions, and water and food supplied ad libitum. This study plan and the conduct of the study were subjected to review by the Scientific Park of Barcelona Ethical Review Process with the current study procedure Code CEEA (AR) 9377-P2. Mice were administered at a dose of 12 mg/Kg every 2 hours for a total of 6 administrations (total dose 72 mg/Kg), unless otherwise stated. After 20 h, animals were anesthesized with isoflurane, kidneys extracted and prepared for histopathological evaluation, and finally animales were sacrificed. Kidney lesions (tubule dilation, necrosis, tubule casts, cell vacuolization, cell desquamation, and cell swelling) were quantified by microscopical observation (see for instance, Roberts, ACS Infect. Dis., 2015, 1, 568). Each one of these parameters was scored with values from 0 to 4 for each animal, as a global result of observations in kidney. Partial scores have been added up to obtain a final score for each animal (Animal Score, AS). The mean of animal score has been obtained to define the Group Score (GS). The higher the score, the more nephrotoxic a compound is. The nephrotoxicity score has been determined as according to the following table of approximated values: […]

[3] = system: E. coli MB1410; assay: microbe, parasite or virus in culture; format: cell-based; settings: for MIC: Escherichia coli
Method: as §1, §2

[4] = system: E. coli ATCC 25922; assay: microbe, parasite or virus in culture; format: cell-based
Method: as §1, §2

[5] = system: P. aeruginosa 36A; assay: microbe, parasite or virus in culture; format: cell-based; settings: for MIC: resistance profile of strain P. aeruginosa 36A, Table 3
Method: as §1, §2

[6] = system: P. aeruginosa ATCC 27853; assay: microbe, parasite or virus in culture; format: cell-based; settings: for MIC: resistance profile of strain P. aeruginosa ATCC 27853, Table 3
Method: as §1, §2

[7] = Table 6, sum of mouse scores, 12 mg/Kg every 2 hours × 6, subcutaneous, total 72 mg/Kg
[8] = Escherichia coli, ATCC25922, resistance profile of strain E. coli ATCC 25922, Table 3, read-out: MIC
[9] = Pseudomonas aeruginosa, ATCC27853, read-out: MIC
[10] = resistance profile of strain E. coli ATCC 25922, Table 3
[11] = Table 8, 12 mg/Kg every 2 hours × 6 sc, total 72 mg/Kg, 3 mice

What does the source list for `CCCCCCCC[C@@H](N)C(=O)N[C@H](C(=O)N[C@@H](CCN)C(=O)N[C@H]1CSSC[C@H]([C@@H](C)O)NC(=O)[C@H](CCN)NC(=O)[C@H](CCN)NC(=O)[C@H](CC(C)C)OC(=O)[C@@H](CC(C)C)NC(=O)[C@H](CCN)NC1=O)[C@@H](C)O` [Example 8, DAdec-Thr-Dab-cyclo(S-S)[Cys-Dab-DLeu-OLe-Dab-Dab-Ttr]] (H-[dGly(nOct)]T[Dab]C[Dab][dL][Hica(2S)][Dab][Dab]; linker 4-C via X1)?
antibacterial activity (MIC) ([1]; MB674): 1 µg/mL; Mice found dead ([2]; Table 6, 12 mg/Kg every 2 hours × 6, subcutaneous, total 72 mg/Kg): None; Group Score (GS) ([2]; Table 6, mean of animal scores, 12 mg/Kg every 2 hours × 6, subcutaneous, total 72 mg/Kg): 0; Cell desquamation, Partial AS [2, 7]: 0; Cell vacuolization, Partial AS [2, 7]: 0; Cloudy swelling, Partial AS [2, 7]: 0; Tubular casts, Partial AS [2, 7]: 0; Tubular dilation, Partial AS [2, 7]: 0; Tubular necrosis, Partial AS [2, 7]: 0; Animal Score (AS), Partial AS ([2]; Table 6, sum over all mice, 12 mg/Kg every 2 hours × 6, subcutaneous, total 72 mg/Kg): 0; antibacterial activity (MIC) ([3]; MB1410): 1 µg/mL; antibacterial activity (MIC) ([4]; ATCC 25922): 2 µg/mL; antibacterial activity (MIC) ([5]; 36A): 1 µg/mL; antibacterial activity (MIC) ([6]; ATCC 27853): 2 µg/mL

Which results are given for `CO/N=C(\C(=O)N[C@@H]1C(=O)N2C(C(=O)[O-])=C(C[N+]3(C)CCCC3)CS[C@H]12)c1csc(N)n1` [FEP, Cefepime]?
MIC [4, 8]: 0.06 µg/mL (≈ 0.125 µM); MIC ([5]; Pseudomonas aeruginosa, read-out: MIC): 8 µg/mL (≈ 16.6 µM); MIC [6, 9]: 1 µg/mL (≈ 2.08 µM)

For `C[C@@H](O)[C@H]1C(=O)N2C(C(=O)O)=C(SCCN=CN)C[C@H]12` [IP, Imipenem], which MIC ([3]; MB1410) is on record?
Its MIC is 0.125 µg/mL (≈ 0.418 µM).

And the MIC ([4]; Escherichia coli, ATCC25922)?
The MIC was 0.125 µg/mL (≈ 0.418 µM).

What about the MIC [6, 9] of the same molecule?
Its MIC is 2 µg/mL (≈ 6.68 µM).

Which MIC [4, 8] does the source give for `C[C@H]1COc2c(N3CCN(C)CC3)c(F)cc3c(=O)c(C(=O)O)cn1c23` [Lev, Levofloxacin] here?
The MIC was 0.094 µg/mL (≈ 0.26 µM).

What about the MIC [6, 9] of the same molecule?
The MIC was 1.5 µg/mL (≈ 4.15 µM).

`C[C@@H](O)[C@H]1C(=O)N2C(C(=O)O)=C(S[C@@H]3CN[C@H](C(=O)N(C)C)C3)[C@H](C)[C@H]12` [MP, Meropenem] was tested. Which MIC ([3]; resistance profile of strain E. coli MB1410, Table 3, read-out: MIC) did it give?
Its MIC is 0.094 µg/mL (≈ 0.245 µM).

And the MIC ([4]; Escherichia coli, ATCC25922)?
Its MIC is 0.125 µg/mL (≈ 0.326 µM).

And the MIC [6, 9]?
Its MIC is 0.38 µg/mL (≈ 0.991 µM).

`CN(C)c1cc(NC(=O)CNC(C)(C)C)c(O)c2c1C[C@H]1C[C@H]3[C@H](N(C)C)C(O)=C(C(N)=O)C(=O)[C@@]3(O)C(O)=C1C2=O` [TG, Tigecicline] was tested. Which MIC [1] did it give?
Its MIC is 0.5 µg/mL (≈ 0.854 µM).

What about the MIC [4, 10] of the same molecule?
Its MIC is 0.5 µg/mL (≈ 0.854 µM).

And the MIC [5]?
Its MIC is 12 µg/mL (≈ 20.5 µM).

And the MIC [6]?
Its MIC is 12 µg/mL (≈ 20.5 µM).

For Gentamicin [Gm], which MIC [1] is on record?
Its MIC is 2 µg/mL.

What about the MIC [4, 10] of the same molecule?
Its MIC is 0.5 µg/mL.

And the MIC [6]?
The MIC was 1.5 µg/mL.

How did the “AS, Partial AS” value [2, 11] turn out when “Nonanoyl-Dab-Thr-Dab-cyclo(S-S)[Cys-Dab-DPhe-Leu-Dab-Dab-Cys] [compound 1]” was run?
Its value is 12.

And the “Cell vacuolization, Partial AS” value [2, 11]?
Its value is 0.

What about the “Cloudy swelling, Partial AS” value [2, 11] of the same molecule?
Its value is 6.

And the “Group Score (GS)” value [2, 11]?
Its value is 4.

What about the Mice found dead [2, 11] of the same molecule?
The Mice found dead was “none”.

What about the “Tubular casts, Partial AS” value [2, 11] of the same molecule?
Its value is 0.

And the “Tubular dilaion, Partial AS” value [2, 11]?
The value was 6.

What about the “Tubular necrosis, Partial AS” value [2, 11] of the same molecule?
Its value is 0.

And the “nephrotoxicity in mice, in words” value ([2]; nephrotoxicity tests carried out in mice, statement of the background)?
The value was “showed nephrotoxicity”.
